The numbers were not newly measured in patent US11459445B2, “Composition and molded body” (SUMITOMO CHEMICAL COMPANY, LIMITED, priority 2018, dated 2022), which cites them from elsewhere.

The series deals with C. violaceum CV026. The note with it: N-hexanoyl homoserine lactone added; compared with no caffeine; Sensors 2013, 13, 5117-5129.

As to `Cn1c(=O)c2c(ncn2C)n(C)c1=O` [caffeine], the “amount of violet pigment (violacein) produced” value is on record as “smaller”.
